EC50 data for 28 compounds are collected here from patent US20060004012A1, “Compounds, pharmaceutical compositions and methods for use in treating metabolic disorders” (priority 2004, published 2006).

Where only a bound is given, the exact number is not on record here.

Broadly, the EC50 is the midpoint of the concentration-response curve.

For the test, the target named is T1, human GPR40 (Homo sapiens, UniProt O14842).
T1 construct: expressed in transfected cells; host or cells: CHO cells, transiently transfected with Lipofectamine 2000 and co-transfected with an aequorin expression vector (Euroscreen)
T1 sequence (O14842 whole entry): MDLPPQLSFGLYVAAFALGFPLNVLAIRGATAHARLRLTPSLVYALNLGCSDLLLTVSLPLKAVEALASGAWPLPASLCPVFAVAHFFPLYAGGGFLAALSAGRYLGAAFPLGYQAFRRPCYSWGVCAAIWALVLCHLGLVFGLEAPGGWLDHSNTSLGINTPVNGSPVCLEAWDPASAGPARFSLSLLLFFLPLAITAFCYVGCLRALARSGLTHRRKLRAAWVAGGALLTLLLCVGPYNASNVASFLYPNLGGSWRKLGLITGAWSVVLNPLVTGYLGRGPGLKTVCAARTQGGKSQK
Put plainly: Cell-based aequorin assay using human GPR40. The following applies: activation of human GPR40; CHO cells transfected with GPR40 and aequorin expression vectors; aequorin luminescence, area-under-curve 2-20 seconds; read-out: Relative EC50. As to the method:
A cell-based aequorin assay may be employed to characterize the modulatory activity of compounds on the GPR40 signaling pathway. In an exemplary assay, CHO cells are transfected in a 15 cm plated containing 14 million cells with 5 μg of GPR40 expression vector and 5 μg of Aequorin expression vector (Euroscreen) using Lipofectamine 2000 (Invitrogen). After 17-24 hours post-transfection, cells are washed with phosphate buffered saline (PBS) and detached from the tissue culture dish with 2 mL of trypsin (0.25%(w/v)). Trypsinization is halted with 28 mL of Hanks Buffered Salt Solution containing 20 mM Hepes (H/HBSS) and 0.01% fatty acid-free bovine serum albumin (BSA) or 0.625% fatty acid-free human serum albumin (HSA). Coelantrazine is added to 1 ug/mL and the cells are incubated for 2 hours at room temperature. Cells are gently mixed every 15 minutes. Compounds are dissolved in dimethyl sulfoxide for preparation of 10 mM stock solutions. Compounds are diluted in H/HBSS containing either 0.01% BSA or 0.625% HSA. Serial dilutions of the test compounds are prepared to determine dose response.
Aequorin luminescence measurements are made using an EG&G Berthold 96-well luminometer and the response is measured over a 20 second interval after cells and compounds were mixed. The area-under-curve from 2-20 seconds is plotted to determine dose reponse. The EC50 (effective concentration to reach 50% maximal response) is determined from the dose response plot. […]
On to `CC#CC(CC(=O)O)c1ccc(OCc2csc(-c3ccc(C(F)(F)F)cc3)n2)cc1` (stereo not shown) [Compound 8.1], for which the EC50 is 0.01 to 0.1 µM.

For the compound `CC#CC(CC(=O)O)c1ccc(OCc2cc(-c3ccccc3)no2)cc1` (stereo not shown) [Compound 77], the concentration giving a half-maximal response (EC50) was in the range of 0.1 to 1 µM.

For `CC#CC(CC(=O)O)c1ccc(OCc2ccc(-c3ccccn3)cc2)cc1` (stereo not shown) [Compound 10.4], the EC50 lay within 0.01 to 0.1 µM.

For `COc1ccc(C(CC(=O)O)c2ccc(OCc3cccc(Oc4ccccc4)c3)cc2)cc1` (stereo not shown) [Compound 84.7], the EC50 lay in the range of 0.1 to 1 µM.

In the case of `NC(=O)C(CC(=O)O)c1ccc(OCc2cccc(-c3ccc(C(F)(F)F)cc3)c2)cc1` (stereo not shown) [Compound 90], the EC50 was 1 to 10 µM.

For the compound `CC#CC(CC(=O)O)c1ccc(OCc2ccc(-c3ccccc3OCC)cc2)cc1` (stereo not shown) [Compound 7.5], the EC50 lay in the range of 0.01 to 0.1 µM.

In the case of `CC#CC(CC(=O)O)c1ccc(OCc2cccc(-n3cccc3)c2)cc1` (stereo not shown) [Compound 10.14], the EC50 fell in the range of 0.01 to 0.1 µM.

Regarding `O=C(O)CN(c1ccccc1)c1ccc(NCc2cccc(Oc3ccccc3)c2)cc1` [Compound 82.3], the EC50 is less than 0.01 µM.

Turning to `CC(C)(C)OC(=O)N[C@@H](CC(=O)O)c1ccc(OCc2cccc(Oc3ccc(F)cc3)c2)cc1` [Compound 42.11, (S)-3-tert-Butoxycarbonylamino-3-{4-[3-(4-fluoro-phenoxy)-benzyloxy]-phenyl}-propionic acid], the EC50 lay within 0.1 to 1 µM.

In the case of `CC#CC(CC(=O)O)c1ccc(OCc2ccc(-c3ccc(OCC)cc3)cc2)cc1` (stereo not shown) [Compound 7.9], the EC50 lay within 0.1 to 1 µM.

For `CC(=O)N[C@@H](CC(=O)O)c1ccc(OCc2cccc(Oc3ccc(F)cc3)c2)cc1` [Compound 83], the EC50 was in the range of 1 to 10 µM.

As to `CC#CC(CC(=O)O)c1ccc(OCc2csc(-c3ccc(C)cc3)n2)cc1` (stereo not shown) [Compound 8.5], the EC50 was in the range of 0.01 to 0.1 µM.

For `COCC#CC(CC(=O)O)c1ccc(OCc2ccc(OC)cc2)cc1` (stereo not shown) [Compound 14.5], the EC50 fell in the range of 1 to 10 µM.

`O=C(O)C[C@H](NC(=O)c1ccccc1)c1ccc(OCc2cccc(Oc3ccc(F)cc3)c2)cc1` [Compound 88.3]: the EC50 is more than 10 µM.

On to `O=C(O)CC(c1ccc(OCc2cccc(-c3ccc(C(F)(F)F)cc3)c2)cc1)c1nccs1` (stereo not shown) [Compound 56], for which the EC50 fell in the range of 0.1 to 1 µM.

In the case of `O=C(O)CC(c1ccc(Cl)cc1)c1ccc(OCc2cccc(Oc3ccccc3)c2)cc1` (stereo not shown) [Compound 84.5], the EC50 lay within 0.1 to 1 µM.

Turning to `O=C(O)C[C@H](NC(=O)CCc1ccccc1)c1ccc(OCc2cccc(Oc3ccc(F)cc3)c2)cc1` [Compound 88.6], the EC50 is more than 10 µM.

For `CC#CC(CC(=O)O)c1ccc(OCc2ccc(-c3cccc(OCC)c3)cc2)cc1` (stereo not shown) [Compound 7.8], the EC50 is 0.1 to 1 µM.

Regarding `O=C(O)CC(c1ccc(OCc2cccc(-c3ccc(C(F)(F)F)cc3)c2)cc1)c1nn[nH]n1` (stereo not shown) [Compound 88.7], the EC50 is 1 to 10 µM.

As for `O=C(O)CC(c1ccc(OCc2cccc(-c3ccc(C(F)(F)F)cc3)c2)cc1)c1cccnc1` (stereo not shown) [Compound 70.2], the concentration giving a half-maximal response (EC50) fell in the range of 0.1 to 1 µM.

For the compound `CC#C[C@@H](CC(=O)O)c1ccc(OCc2nc(-c3ccc(C(F)(F)F)cc3)oc2C)cc1` [Compound 86], the EC50 was less than 0.01 µM.

Turning to `CC#CC(CC(=O)O)c1ccc(N(Cc2cccc(OC)c2)Cc2cccc(OC)c2)cc1` (stereo not shown) [Compound 36.2], the concentration for a half-maximal effect (EC50) fell in the range of 0.1 to 1 µM.

As for `CC#CC(CC(=O)O)c1ccc(OCc2noc(-c3ccc(C(F)(F)F)cc3)n2)cc1` (stereo not shown) [Compound 27.1], the concentration for a half-maximal effect (EC50) is 0.1 to 1 µM.

For `Cc1ccccc1COc1ccc(C(C#CC(C)C)CC(=O)O)cc1` (stereo not shown) [Compound 71], the EC50 was in the range of 0.1 to 1 µM.

As for `O=C(O)CC(c1ccc(OCc2cccc(-c3ccc(C(F)(F)F)cc3)c2)cc1)n1cccn1` (stereo not shown) [Compound 62.3], the EC50 was in the range of 0.01 to 0.1 µM.

Consider `CC#CC(CC(=O)O)c1ccc(OCc2cccc(N(CC)c3ccccc3)c2)cc1` (stereo not shown) [Compound 10.2], for which the EC50 lay within 0.01 to 0.1 µM.

Take `CC#CC(CC(=O)O)c1ccc(N(C)Cc2cccc(OC)c2)cc1` (stereo not shown) [Compound 73]: the EC50 is 1 to 10 µM.

Consider `CC#CC(CC(=O)O)c1ccc(OCc2sc(-c3ccc(OC)c(OC)c3)nc2C)cc1` (stereo not shown) [Compound 9.4], for which the EC50 is 0.01 to 0.1 µM.
